From ChEMBL document CHEMBL1201862, “PubChem BioAssay data set” (2004)
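Step 1: Grow cells in 96-well plates. Step 2: Expose to compound for 48 hours at 5 concentrations. Step 3: Interpolate endpoints linearly; if unreached, use highest concentration. GI50 is the concentration that inhibits growth by half.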 Calls of active or inactive are those of the source. Cut-off read from the data, not from the text of the source: active = GI50 up to about 1.1 µM and inactive = higher.

What was measured:
Experiment in all cases: NCI-60 cell line screen, 48 h
[1] = tested on: 786-0
[2] = tested on: A498
[3] = tested on: A549
[4] = tested on: BT-549
[5] = tested on: CAKI-1
[6] = tested on: CCRF-CEM
[7] = tested on: COLO 205
[8] = tested on: DU-145
[9] = tested on: EKVX
[10] = tested on: HCT-116
[11] = tested on: HCT-15
[12] = tested on: HL-60
[13] = tested on: HOP-62
[14] = tested on: HT-29
[15] = tested on: Hs-578T
[16] = tested on: IGROV-1
[17] = tested on: K562
[18] = tested on: KM12
[19] = tested on: LOX IMVI
[20] = tested on: M14
[21] = tested on: MCF7
[22] = tested on: MDA-MB-231
[23] = tested on: MDA-MB-435
[24] = tested on: MDA-N
[25] = tested on: MOLT-4
[26] = tested on: Malme-3M
[27] = tested on: NCI-H226
[28] = tested on: NCI-H460
[29] = tested on: NCI-H522
[30] = tested on: NCI/ADR-RES
[31] = tested on: OVCAR-3
[32] = tested on: OVCAR-4
[33] = tested on: OVCAR-5
[34] = tested on: OVCAR-8
[35] = tested on: PC-3
[36] = tested on: RPMI-8226
[37] = tested on: RXF 393
[38] = tested on: SF-268
[39] = tested on: SF-295
[40] = tested on: SF-539
[41] = tested on: SK-MEL-28
[42] = tested on: SK-MEL-2
[43] = tested on: SK-MEL-5
[44] = tested on: SK-OV-3
[45] = tested on: SN12C
[46] = tested on: SNB-19
[47] = tested on: SNB-75
[48] = tested on: SR
[49] = tested on: SW-620
[50] = tested on: T47D
[51] = tested on: TK-10
[52] = tested on: U-251
[53] = tested on: UACC-257
[54] = tested on: UACC-62
[55] = tested on: UO-31
[56] = tested on: ACHN
[57] = tested on: HCC 2998
[58] = tested on: NCI-H23

Cc1c(/C=N/NC(=S)Nc2ccccc2Cl)c(=O)n(-c2ccccc2)n1C
GI50 [1]: 19.9 µM (inactive)
GI50 [2]: 30.4 µM (inactive)
GI50 [3]: 27.6 µM (inactive)
GI50 [4]: 54.2 µM (inactive)
GI50 [5]: 19.7 µM (inactive)
GI50 [6]: 11 µM (inactive)
GI50 [7]: 38.7 µM (inactive)
GI50 [8]: 60.4 µM (inactive)
GI50 [9]: 45.5 µM (inactive)
GI50 [10]: 28.6 µM (inactive)
GI50 [11]: 8.53 µM
GI50 [12]: 22.4 µM (inactive)
GI50 [13]: 22.7 µM (inactive)
GI50 [14]: 29.4 µM (inactive)
GI50 [15]: 24 µM (inactive)
GI50 [16]: 40.3 µM (inactive)
GI50 [17]: 27.9 µM (inactive)
GI50 [18]: 29.3 µM (inactive)
GI50 [19]: 55.3 µM (inactive)
GI50 [20]: 60.3 µM (inactive)
GI50 [21]: 46.5 µM (inactive)
GI50 [22]: 14.9 µM (inactive)
GI50 [23]: > 100 µM (inactive)
GI50 [24]: 87.3 µM (inactive)
GI50 [25]: 20.5 µM (inactive)
GI50 [26]: 32.7 µM (inactive)
GI50 [27]: 68.5 µM (inactive)
GI50 [28]: 25.4 µM (inactive)
GI50 [29]: 22.5 µM (inactive)
GI50 [30]: 20.2 µM (inactive)
GI50 [31]: 34.1 µM (inactive)
GI50 [32]: 42.4 µM (inactive)
GI50 [33]: > 100 µM (inactive)
GI50 [34]: 27.7 µM (inactive)
GI50 [35]: 43 µM (inactive)
GI50 [36]: 48.9 µM (inactive)
GI50 [37]: 16.1 µM (inactive)
GI50 [38]: 43.8 µM (inactive)
GI50 [39]: 28.1 µM (inactive)
GI50 [40]: 30.1 µM (inactive)
GI50 [41]: 58.6 µM (inactive)
GI50 [42]: > 100 µM (inactive)
GI50 [43]: 32.7 µM (inactive)
GI50 [44]: 31 µM (inactive)
GI50 [45]: 44.2 µM (inactive)
GI50 [46]: 32.6 µM (inactive)
GI50 [47]: 25.9 µM (inactive)
GI50 [48]: 43.8 µM (inactive)
GI50 [49]: 39.9 µM (inactive)
GI50 [50]: 13 µM (inactive)
GI50 [51]: 23.4 µM (inactive)
GI50 [52]: 30.3 µM (inactive)
GI50 [53]: 34.2 µM (inactive)
GI50 [54]: 31 µM (inactive)
GI50 [55]: 15.1 µM (inactive)

COC(=O)/C=C/[C@@H]1[C@H](C)N1S(=O)(=O)c1ccc(C)cc1 (stereo not given in full)
GI50 [1]: 61.4 µM (inactive)
GI50 [2]: > 100 µM (inactive)
GI50 [3]: > 100 µM (inactive)
GI50 [56]: > 100 µM (inactive)
GI50 [4]: > 100 µM (inactive)
GI50 [5]: > 100 µM (inactive)
GI50 [6]: > 100 µM (inactive)
GI50 [7]: > 100 µM (inactive)
GI50 [8]: > 100 µM (inactive)
GI50 [9]: > 100 µM (inactive)
GI50 [57]: > 100 µM (inactive)
GI50 [10]: > 100 µM (inactive)
GI50 [11]: > 100 µM
GI50 [12]: > 100 µM (inactive)
GI50 [13]: > 100 µM (inactive)
GI50 [14]: > 100 µM (inactive)
GI50 [15]: > 100 µM (inactive)
GI50 [16]: > 100 µM (inactive)
GI50 [17]: > 100 µM (inactive)
GI50 [19]: 56.4 µM (inactive)
GI50 [20]: > 100 µM (inactive)
GI50 [21]: > 100 µM (inactive)
GI50 [22]: 78.7 µM (inactive)
GI50 [23]: > 100 µM (inactive)
GI50 [24]: > 100 µM (inactive)
GI50 [25]: > 100 µM (inactive)
GI50 [26]: > 100 µM (inactive)
GI50 [27]: > 100 µM (inactive)
GI50 [58]: > 100 µM (inactive)
GI50 [28]: > 100 µM (inactive)
GI50 [29]: > 100 µM (inactive)
GI50 [30]: > 100 µM (inactive)
GI50 [31]: > 100 µM (inactive)
GI50 [32]: > 100 µM (inactive)
GI50 [33]: > 100 µM (inactive)
GI50 [34]: > 100 µM (inactive)
GI50 [35]: > 100 µM (inactive)
GI50 [36]: > 100 µM (inactive)
GI50 [37]: > 100 µM (inactive)
GI50 [38]: > 100 µM (inactive)
GI50 [39]: > 100 µM (inactive)
GI50 [40]: > 100 µM (inactive)
GI50 [41]: > 100 µM (inactive)
GI50 [42]: 29.7 µM (inactive)
GI50 [43]: > 100 µM (inactive)
GI50 [44]: > 100 µM (inactive)
GI50 [45]: > 100 µM (inactive)
GI50 [46]: > 100 µM (inactive)
GI50 [48]: > 100 µM (inactive)
GI50 [49]: > 100 µM (inactive)
GI50 [50]: > 100 µM (inactive)
GI50 [51]: > 100 µM (inactive)
GI50 [52]: > 100 µM (inactive)
GI50 [53]: > 100 µM (inactive)
GI50 [54]: > 100 µM (inactive)
